In patent US20230165866A1, “CYCLOSERINE AND PENTOXIFYLLINE COMBINATION THERAPY FOR TREATMENT OF DEPRESSION” (NEURORIVE INC, priority 2020, published 2023):

What was measured:
mice (C57BL/6) = assay: Forced swimming test (FST); assay type: in vivo, mouse; details: C57BL/6 mice, oral; DCS alone 10 mg/kg, pentoxifylline alone 80 mg/kg, combination DCS 10 mg/kg + pentoxifylline 10, 20, 80, 160 mg/kg; FST an hour after administration; immobility time in last 4 min of 6 min
Method: In order to test an effect of reducing depression depending on administration of the composite composition of the present invention, mice were performed to a forced swimming test (FST). The FST, which is to measure a coping strategy for acute stress that inevitably occurs, is an animal behavioral experiment commonly used to measure antidepressant effects. To confirm the effect of reducing depression by combined administration of D-cycloserine (DCS) and pentoxifylline (Pen), each group of mice was administered orally with the vehicle (DW 5 ml/kg), DCS (administered alone at 10 mg/kg), pentoxifylline (administered alone at 80 mg/kg) and DCS+pentoxifylline (DCS 10 mg/kg and pentoxifylline 10, 20, 80, 160 mg/kg combination treatment group). After administration, the forced swimming test (FST) that measures depression-like behavior was performed on the mice. Specifically, each mice group (C57BL/6) was individually placed in a 3 L Pyrex beaker (13 cm in diameter, 24 cm in height), and the beakers were filled with 26° C. of water up to a depth of 9 cm. All mice were forced to swim for 6 minutes, and immobility time was measured for the last 4 minutes of the experiment. The immobility time is defined as the […] time taken while the mouse is floating without struggling or taking only the movement required for keeping the mouse's head above the water surface.

mice (C57BL6) = assay: Tail suspension test (TST); assay type: in vivo, mouse; details: DCS alone 10 mg/kg, pentoxifylline alone 80 mg/kg, combination DCS 10 mg/kg + pentoxifylline 10, 20, 80, 160 mg/kg, TST 1 hour after administration, immobility time over 6 min
Description: In order to test an effect of reducing depression depending on administration of the composite composition of the present invention, mice were subjected to a tail suspension test (TST). The TST, which is to measure a stress in a rodent animal model, is based on the behavior of an experimental animal facing immobile posture in the face of short-term, irreversible stress. In the technical field of the present invention, the TST is used to measure the effect of antidepressant. To confirm the effect of reducing depression by combined administration of D-cycloserine (DCS) and pentoxifylline (Pen), DCS, Pen alone or a composite composition were administered to all groups of mice (C57BL6). Each group of mice was administered with the vehicle (DW 5 ml/kg), DCS (administered alone at 10 mg/kg), pentoxifylline (administered alone at 80 mg/kg), and DCS+pentoxifylline (DCS 10 mg/kg and pentoxifylline 10, 20, 80, 160 mg/kg combination treatment group). After 1 hour, the tail suspension test (TST) that measures depression-like behavior was performed on the mice. […] The experiment started as soon as the mouse was hung, and the immobility time was measured for 6 minutes after the start of the experiment. […]

Compound	immobility in FST compared to the control group administered with the vehicle (mice (C57BL/6))	immobility in TST compared to the control group administered with the vehicle (mice (C57BL6))
N[C@@H]1CONC1=O [DCS, D-cycloserine]	did not show significantly different in immobility	did not show statistical significance
CC(=O)CCCCn1c(=O)c2c(ncn2C)n(C)c1=O [pentoxifylline]	did not show significantly different in immobility	did not show statistical significance
